Measured values: patent US8642627B2 (priority 2002, dated 2014)
Where two headings read alike, the source gives them in different places.

Assays:
adult = settings: cited from earlier work
[1] = aqueous system, 20° C.; cited from earlier work
[2] = cited from earlier work
[3] = Andersen Cascade Impactor (ACI) experiment; assay type: physicochemical
[4] = apparent pH 6.5, 90% ethanol

CN1CCCC1c1cccnc1 (stereo not shown) [nicotine, 3-(1-methyl-2-pyrrolidinyl)-pyridine]
amount that may kill an adult (adult): Approximately forty | pKa (physchem; apparent pKa of nicotine, 90% ethanol, titration curve with sulphuric acid): 6.5 | pKa (physchem; apparent pKa, ethanol-based system, 20° C.): ~6.5 | pKa for the acid dissociation constant of the mono protonated form of nicotine [1]: approximately 8.0 | arterial levels exceeding the venous levels ([2]; in vivo): six- to ten-fold | time to reach the brain after inhalation ([2]; smoking of a cigarette): ten | behaviour of nicotine in the aerosol droplets ([3]; formulation at apparent pH 4.0, nicotine in salt form): remains in the liquid droplets | behaviour of nicotine in the aerosol droplets ([3]; formulation at apparent pH 6.0): escapes from the liquid droplets as a vapor | share of nicotine in its free base form ([3]; formulation at apparent pH 6.0): approximately 15% | share of nicotine in its free base form [4]: 50%
